IC50 data for 30 compounds are collected here from US8685969B2, “Carboline carboxamide compounds useful as kinase inhibitors” (Bristol-Myers Squibb Company, priority 2010, dated 2014).

SMILES strings stand for the structures. pIC50: −log10 of the molar value. A value given as a limit tells only on which side of the number the result lay.

In one experiment the test system is Ramos RA1 B cells. Nature of the experiment: Ramos FLIPR Assay (intracellular calcium after anti-human IgM stimulation). The format is cell-based. Conditions: Ramos RA1 B cells stimulated with goat anti-human IgM 2.5 μg/mL; peak calcium; read-out: IC50 for Inhibition of Ramos FLIPR assay. As for the experimental part: Ramos RA1 B cells (ATCC CRL-1596) at a density of 2×10^6 cells/ml in RPMI minus phenol red (Invitrogen 11835-030) and 50 mM HEPES (Invitrogen 15630-130) containing 0.1% BSA (Sigma A8577) were added to one half volume of calcium loading buffer (BD bulk kit for probenecid sensitive assays, #640177) and incubated at room temperature in the dark for 1 hour. Dye-loaded cells were pelleted (Beckmann GS-CKR, 1200 rpm, RT, 5 minutes) and resuspended in RT RPMI minus phenol red with 50 mM HEPES and 10% FBS to a density of 1×10^6 cells/ml. 150 μl aliquots (150,000/well) were plated into 96 well poly-D-lysine coated assay plates (BD 35 4640) and briefly centrifuged (Beckmann GS-CKR 800 rpm, 5 minutes, without brake). 50 μl compound dilutions in 0.4% DMSO/RPMI minus phenol red+50 mM HEPES+10% FBS were added to the wells and the plate was incubated at RT in the dark for 1 hour. Assay plate was briefly centrifuged as above prior to measuring calcium levels.
Using the FLIPR1 (Molecular devices), cells were stimulated by adding goat anti-human IgM (Invitrogen AHI0601) to 2.5 μg/mL. Changes in intracellular calcium concentrations were measured for 180 seconds and percent inhibition was determined relative to peak calcium levels seen in the presence of stimulation only.
Background: Calcium assays in cells follow changes in intracellular calcium, usually with a dye or a luminescent sensor.

For a further experiment, the target named is T1, human recombinant Btk (Homo sapiens, UniProt Q06187).
T1 construct: purchased Invitrogen Corporation
Nature of the experiment: Human Recombinant Btk Enzyme Assay. The format is biochemical. Conditions: human recombinant Btk 1 nM, ATP 20 μM, 60 min room temperature; read-out: IC50 for Inhibition of Btk. The procedure: Human Recombinant Btk Enzyme Assay
To V-bottom 384-well plates were added test compounds, human recombinant Btk (1 nM, Invitrogen Corporation), fluoresceinated peptide (1.5 μM), ATP (20 μM), and assay buffer (20 mM HEPES pH 7.4, 10 mM MgCl2, 0.015% Brij35 and 4 mM DTT in 1.6% DMSO), with a final volume of 30 μL. After incubating at room temperature for 60 min, the reaction was terminated by adding 45 μl of 35 mM EDTA to each sample. The reaction mixture was analyzed on the Caliper LABCHIP® 3000 (Caliper, Hopkinton, Mass.) by electrophoretic separation of the fluorescent substrate and phosphorylated product. Inhibition data were calculated by comparison to no enzyme control reactions for 100% inhibition and no inhibitor controls for 0% inhibition. Dose response curves were generated to determine the concentration required inhibiting 50% of kinase activity (IC50). Compounds were dissolved at 10 mM in dimethylsulfoxide (DMSO) and evaluated at eleven concentrations.
Using this assay, the IC50 values of the following compounds were determined.

As usually defined, the pIC50 is −log10 of the IC50, conventionally taken in molar units.

T1 sequence (Q06187 whole entry): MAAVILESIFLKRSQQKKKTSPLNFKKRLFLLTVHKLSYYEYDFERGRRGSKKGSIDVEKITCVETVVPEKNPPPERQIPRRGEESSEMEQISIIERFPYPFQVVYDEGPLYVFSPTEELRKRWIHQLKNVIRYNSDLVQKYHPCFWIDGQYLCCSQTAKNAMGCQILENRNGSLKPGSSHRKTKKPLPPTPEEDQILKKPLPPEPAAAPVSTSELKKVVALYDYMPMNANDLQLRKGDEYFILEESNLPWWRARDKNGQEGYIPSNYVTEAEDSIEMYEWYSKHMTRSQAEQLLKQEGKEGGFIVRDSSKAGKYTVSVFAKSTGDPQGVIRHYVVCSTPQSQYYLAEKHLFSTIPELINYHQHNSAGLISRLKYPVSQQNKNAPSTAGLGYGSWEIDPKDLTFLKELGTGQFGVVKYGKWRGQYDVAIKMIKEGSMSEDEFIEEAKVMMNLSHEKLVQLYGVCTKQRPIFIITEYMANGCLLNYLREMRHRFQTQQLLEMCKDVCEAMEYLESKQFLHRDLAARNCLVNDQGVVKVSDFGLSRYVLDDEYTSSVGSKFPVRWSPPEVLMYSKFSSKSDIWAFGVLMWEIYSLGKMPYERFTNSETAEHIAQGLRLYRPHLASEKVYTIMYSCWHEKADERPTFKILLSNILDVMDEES

With `Cc1c(-c2ccc(C(N)=O)c3[nH]c4c(c23)CNCC4)cccc1-n1cnc2ccccc2c1=O` [Example 42, 9-(2-Methyl-3-(4-oxoquinazolin-3(4H)-yl)phenyl)-2,3,4,5-tetrahydro-1H-pyrido[4,3-b]indole-6-carboxamide], the results for the pIC50 with Ramos RA1 B cells and at human recombinant Btk were less than 6.00 and 6.28, respectively.

In the case of `Cc1c(-c2ccc(C(N)=O)c3[nH]c4cc(C(=O)N(C)C)ncc4c23)cccc1-n1cnc2ccccc2c1=O` [Example 117], the pIC50 in the experiment with Ramos RA1 B cells was 6.53; at human recombinant Btk, 7.64. Regarding `Cc1c(-c2cnc(C(N)=O)c3[nH]c4cc5c(cc4c23)OCO5)cccc1N1Cc2ccc(Cl)cc2C1=O` [Example 79], the pIC50 in the experiment on Ramos RA1 B cells was 6.07. On the same count and under the same terms, then `COc1ccc2c(c1)C(=O)N(c1cccc(-c3cnc(C(N)=O)c4[nH]c5cc(C(C)O)ccc5c34)c1C)C2` (stereo not drawn) [Example 31, 7-(1-Hydroxyethyl)-4-(3-(6-methoxy-1-oxoisoindolin-2-yl)-2-methylphenyl)-9H-pyrido[3,4-b]indole-1-carboxamide], with 7.15. On to `COc1ccc2c(c1)C(=O)N(c1cccc(-c3nnc(C(N)=O)c4[nH]c5cc(C(C)=O)ccc5c34)c1C)C2` [Example 35, 7-Acetyl-1-(3-(6-methoxy-1-oxoisoindolin-2-yl)-2-methylphenyl)-5H-pyridazino[4,5-b]indole-4-carboxamide], for which the pIC50 was 5.86 in the experiment with Ramos RA1 B cells and 7.24 on human recombinant Btk. As for `Cc1c(-c2nnc(C(N)=O)c3[nH]c4cc(OCCO)ccc4c23)cccc1-n1cnc2ccccc2c1=O` [Example 34, 7-(2-Hydroxyethoxy)-1-(2-methyl-3-(4-oxoquinazolin-3(4H)-yl)phenyl)-5H-pyridazino[4,5-b]indole-4-carboxamide], on human recombinant Btk, the negative-log IC50 (pIC50) is 8.15. Turning to `NC(=O)c1ncc(-c2cccc(NC(=O)N3Cc4ccc(F)cc4C3)c2F)c2c1[nH]c1cc(N3CCOCC3)ccc12` [Example 73], the pIC50 in the experiment on Ramos RA1 B cells is 5.99. In the case of `Cc1c(-c2ccc(C(N)=O)c3[nH]c4cnc(C(C)(C)O)cc4c23)cccc1-n1cnc2cccc(F)c2c1=O` [Example 110], the pIC50 is 7.02 in the experiment on Ramos RA1 B cells and 7.85 at human recombinant Btk.

As to `COc1ccc2[nH]c3c(C(N)=O)ncc(-c4ccccc4F)c3c2c1` [Example 56], at human recombinant Btk, the pIC50 was 7.49.

Take `COCCOc1ccc2c(c1)[nH]c1c(C(N)=O)nnc(-c3cccc(N4Cc5ccc(Cl)cc5C4=O)c3C)c12` [Example 32, 1-(3-(6-Chloro-1-oxoisoindolin-2-yl)-2-methylphenyl)-7-(2-methoxyethoxy)-5H-pyridazino[4,5-b]indole-4-carboxamide]: at human recombinant Btk, the pIC50 is 8.15. For `NC(=O)c1ncc(-c2ccccc2F)c2c1[nH]c1ccc(F)cc12` [Example 54], at human recombinant Btk, the negative logarithm of the IC50 (pIC50) is 7.19. Still for that read-out and setting: then `COCCOc1ccc2c(c1)[nH]c1c(C(N)=O)ncc(-c3cccc(N4Cc5ccc(Cl)cc5C4=O)c3C)c12` [Example 9, 4-(3-(6-Chloro-1-oxoisoindolin-2-yl)-2-methylphenyl)-7-(2-methoxyethoxy)-9H-pyrido[3,4-b]indole-1-carboxamide], with 8.70.

As for `COCCOc1ccc2c(c1)[nH]c1c(C(N)=O)ncc(-c3cccc(N4Cc5ccc(F)cc5C4=O)c3F)c12` [Example 85], in the experiment with Ramos RA1 B cells, the pIC50 was 5.85. With `Cc1c(-c2cnc(C(N)=O)c3[nH]c4cc(C(C)O)ccc4c23)cccc1-n1cnc2ccccc2c1=O` (stereo not drawn) [Example 30, 7-(1-Hydroxyethyl)-4-(2-methyl-3-(4-oxoquinazolin-3(4H)-yl)phenyl)-9H-pyrido[3,4-b]indole-1-carboxamide], the pIC50 was 7.80 with Ramos RA1 B cells and 8.52 on human recombinant Btk. Regarding `Cc1ccc(C(=O)Nc2cccc(-c3cnc(C(N)=O)c4[nH]c5cc(N6CCOCC6)ccc5c34)c2F)nc1` [Example 60], at human recombinant Btk, the pIC50 was 7.07. As for `Cc1c(-c2cnc(C(N)=O)c3[nH]c4cc(N5CCOCC5)ccc4c23)cccc1-n1cnc2c(F)cccc2c1=O` [Example 97], the pIC50 in the experiment with Ramos RA1 B cells was 7.82. `Cc1c(NC(=O)c2ccc(F)cc2)cccc1-c1cnc(C(N)=O)c2[nH]c3cc(N4CCOCC4)ccc3c12` [Example 64]: the pIC50 on human recombinant Btk is 8.10. On to `COCCOc1ccc2c(c1)[nH]c1c(C(N)=O)ncc(-c3cccc(-n4cnc5c(F)cccc5c4=O)c3C)c12` [Example 87], for which the pIC50 in the experiment with Ramos RA1 B cells is 7.20; on human recombinant Btk, 8.15. For the compound `Cc1c(-c2cnc(C(N)=O)c3[nH]c4cc(OCCO)ccc4c23)cccc1-n1cnc2ccccc2c1=O` [Example 11, 7-(2-Hydroxyethoxy)-4-(2-methyl-3-(4-oxoquinazolin-3(4H)-yl)phenyl)-9H-pyrido[3,4-b]indole-1-carboxamide], the pIC50 at human recombinant Btk is 8.52.

`COCCOc1ccc2c(c1)[nH]c1c(C(N)=O)nc(C)c(-c3cccc(-n4cnc5ccccc5c4=O)c3C)c12` [Example 37, 7-(2-Methoxyethoxy)-3-methyl-4-(2-methyl-3-(4-oxoquinazolin-3(4H)-yl)phenyl)-9H-pyrido[3,4-b]indole-1-carboxamide]: the pIC50 in the experiment with Ramos RA1 B cells was 6.72; at human recombinant Btk, 7.85. Regarding `COc1ccc2c(c1)C(=O)N(c1cccc(-c3nnc(C(N)=O)c4[nH]c5cc(C(C)(C)O)ccc5c34)c1C)C2` [Example 36, 7-(2-Hydroxypropan-2-yl)-1-(3-(6-methoxy-1-oxoisoindolin-2-yl)-2-methylphenyl)-5H-pyridazino[4,5-b]indole-4-carboxamide], the pIC50 on human recombinant Btk is 8.52. The same measure, in the same setting: then `CN(C)c1ccc(C(=O)Nc2cccc(-c3cnc(C(N)=O)c4[nH]c5cc(C(=O)N6CCOCC6)ccc5c34)c2F)cc1` [Example 55], with 7.37. For the compound `NC(=O)c1ncc(-c2cccc(N3Cc4ccc(Cl)cc4C3=O)c2F)c2c1[nH]c1cc(N3CCOCC3)ccc12` [Example 77], the pIC50 in the experiment with Ramos RA1 B cells was 7.09. The same measure, in the same setting: then `Cc1c(-c2cnc(C(N)=O)c3[nH]c4cc(OCCO)ccc4c23)cccc1-n1cnc2ccc(F)cc2c1=O` [Example 90], with 7.08; and `COCCOc1ccc2c(c1)[nH]c1c(C(N)=O)ncc(-c3cccc(N4Cc5ccc(OC)cc5C4=O)c3F)c12` [Example 82], with 5.97.

On to `Cc1c(-c2ncc(C(N)=O)c3[nH]c4cc(C(C)(C)O)ccc4c23)cccc1N1Cc2ccc(F)cc2C1=O` [Example 41, 1-(3-(6-Fluoro-1-oxoisoindolin-2-yl)-2-methylphentl)-7-(2-hydroxypropan-2-yl)-5H-pyrido[4,3-b]indole-4-carboxamide], for which the figures for the pIC50 with Ramos RA1 B cells and on human recombinant Btk were less than 6.30 and 8.22, respectively. On to `Cc1c(-c2nnc(C(N)=O)c3[nH]c4cc(C(C)(C)O)ccc4c23)cccc1N1Cc2ccc(Cl)cc2C1=O` [Example 100], for which the pIC50 in the experiment on Ramos RA1 B cells was 7.72. For the compound `Cc1c(-c2nnc(C(N)=O)c3[nH]c4cc(OCCO)ccc4c23)cccc1N1Cc2ccc(Cl)cc2C1=O` [Example 99], the pIC50 on human recombinant Btk is 8.10. On to `Cc1c(NC(=O)N2Cc3ccc(F)cc3C2)cccc1-c1cnc(C(N)=O)c2[nH]c3cc(N4CCOCC4)ccc3c12` [Example 71], for which the results for the pIC50 in the experiment on Ramos RA1 B cells and on human recombinant Btk were 7.15 and 8.52, respectively. In the case of `Cc1c(-c2cnc(C(N)=O)c3[nH]c4cc(N5CCOCC5)ccc4c23)cccc1N1Cc2ccc(Cl)cc2C1=O` [Example 92], the pIC50 with Ramos RA1 B cells was 7.25.
